From ChEMBL document CHEMBL4715899, “In-situ side-chain peptide cyclization as a breaker strategy against the amyloid aggregating peptide” (Bioorg Med Chem, 2021)
Activity calls are given as the source filed them. No cut-off for these calls is given here. Residues, ends and D or L forms follow the SMILES beside them. *: point of attachment. OBn = c1ccc(CO*)cc1

Legend:
Homo sapiens [1] = species: Homo sapiens; test: Disruption of preformed amyloid beta (1 to 40) (unknown origin) aggregation assessed as reduction in fibril formation at protein to ligand concentration ratio of 1:1 to 1:5 after 7 days by CD spectroscopic analysis; settings: time 7.0 day
Homo sapiens [2] = species: Homo sapiens; test: Disruption of preformed amyloid beta (1 to 40) (unknown origin) aggregation assessed as reduction in fibril formation at protein to ligand concentration ratio of 1:1 to 1:5 after 4 to 7 days by FTIR analysis; settings: time 4-7 day
[3] = Amyloidogenic property of compound in PBS buffer at pH 7.4 assessed as fibrillar assembly at 50 uM after 7 days by Congo-Red staining based birefringence anlaysis; settings: time 7.0 day
[4] = Amyloidogenic property of compound in PBS buffer at pH 7.4 assessed as fibrillar assembly at 50 uM after 7 days by TEM anlaysis; settings: time 7.0 day
Homo sapiens [5] = species: Homo sapiens; test: Inhibition of amyloid beta (1 to 40) (unknown origin) aggregation assessed as fibril formation at protein to ligand concentration ratio of 1:1 to 1:5 after 7 days by TEM analysis; settings: time 7.0 day
Homo sapiens [6] = species: Homo sapiens; test: Inhibition of amyloid beta (1 to 40) (unknown origin) aggregation at protein to ligand concentration ratio of 1:1 to 1:5 after 7 days by FTIR analysis; settings: time 7.0 day
[7] = Aggregation property of the compound in PBS buffer at pH 7.4 at 50 uM after 7 days by thioflavin-T fluorescence assay; type: physicochemical; settings: pH 7.4, 168 h, time 7 day
Homo sapiens [8] = species: Homo sapiens; test: Inhibition of amyloid beta (1 to 40) (unknown origin) aggregation at protein to ligand concentration ratio of 1:1 to 1:5 after 7 days by CD spectroscopic analysis; settings: time 7.0 day
Homo sapiens [9] = species: Homo sapiens; test: Disruption of preformed amyloid beta (1 to 40) (unknown origin) aggregation assessed as reduction in fibril formation at protein to ligand concentration ratio of 1:1 to 1:5 after 7 days by FTIR analysis; settings: time 7.0 day
Homo sapiens [10] = species: Homo sapiens; test: Inhibition of amyloid beta (1 to 40) (unknown origin) aggregation assessed as fibril formation at protein to ligand concentration ratio of 1:1 to 1:5 after 7 days by thioflavin-T fluorescence assay; settings: time 7.0 day
Homo sapiens [11] = species: Homo sapiens; test: Disruption of preformed amyloid beta (1 to 40) (unknown origin) aggregation assessed as reduction in fibril formation at protein to ligand concentration ratio of 1:1 to 1:5 after 4 to 7 days by Congo-Red staining based birefringence anlaysis; settings: time 4-7 day
Homo sapiens [12] = species: Homo sapiens; test: Inhibition of amyloid beta (1 to 40) (unknown origin) aggregation assessed as fibril formation at protein to ligand concentration ratio of 1:1 to 1:5 after 7 days by Congo-Red staining based birefringence anlaysis; settings: time 7.0 day
Homo sapiens [13] = species: Homo sapiens; test: Disruption of preformed amyloid beta (1 to 40) (unknown origin) aggregation assessed as reduction in fibril formation at protein to ligand concentration ratio of 1:1 to 1:5 after 7 days by thioflavin-T fluorescence assay; settings: time 7.0 day
Homo sapiens [14] = species: Homo sapiens; test: Inhibition of amyloid beta (1 to 40) (unknown origin)-induced pore formation in large unilamellar vesicles at 10 days pretested 1:5 ratio of amyloid beta (1 to 40) to ligand concentration followed by LUV treatment and measured up to 120 mins by carboxy-fluorescein dye assay; settings: time 10.0 day
Homo sapiens [15] = species: Homo sapiens; test: Inhibition of amyloid beta (1 to 40) (unknown origin)-induced pore formation in large unilamellar vesicles at 10 days pretested 1:5 ratio of amyloid beta (1 to 40) to ligand concentration followed by LUV treatment and measured up to 72 hrs by carboxy-fluorescein dye assay; settings: time 10.0 day
Homo sapiens [16] = species: Homo sapiens; test: Inhibition of preformed amyloid beta (1 to 40) (unknown origin)-induced pore formation in large unilamellar vesicles at 10 days pretested 1:5 ratio of amyloid beta (1 to 40) to ligand concentration followed by LUV treatment and measured up to 120 mins by carboxy-fluorescein dye assay; settings: time 10.0 day
Homo sapiens [17] = species: Homo sapiens; test: Inhibition of preformed amyloid beta (1 to 40) (unknown origin)-induced pore formation in large unilamellar vesicles at 10 days pretested 1:5 ratio of amyloid beta (1 to 40) to ligand concentration followed by LUV treatment and measured up to 172 hrs by carboxy-fluorescein dye assay; settings: time 10.0 day

SMILES	Activity (Homo sapiens [1])	Activity (Homo sapiens [2])	Activity [3]	Activity [4]	inhibition (Homo sapiens [5])	inhibition (Homo sapiens [6])	Activity [7]	inhibition (Homo sapiens [8])	Activity (Homo sapiens [9])	inhibition (Homo sapiens [10])	Activity (Homo sapiens [11])	inhibition (Homo sapiens [12])	Activity (Homo sapiens [13])	inhibition (Homo sapiens [14])	inhibition (Homo sapiens [15])	inhibition (Homo sapiens [16])	inhibition (Homo sapiens [17])
CC(=O)N[C@@H](CCCCN)C(=O)N[C@@H](C)C(=O)N[C@@H](CCC(=O)OCc1ccccc1)C(=O)N[C@@H](Cc1ccccc1)C(=O)N[C@@H](Cc1ccccc1)C(=O)N[C@@H](C)C(N)=O (Ac-KAE(OBn)FFA-NH2)	Active	Active	inactive	inactive	Active	Active	Not Active	Active	Active	Active	Active	Active	Active	–	–	–	–
CC(=O)N[C@@H](CCCCN)C(=O)NCC(=O)N[C@@H](CCC(=O)OCc1ccccc1)C(=O)N[C@@H](Cc1ccccc1)C(=O)N[C@@H](Cc1ccccc1)C(=O)N[C@@H](C)C(N)=O (Ac-KGE(OBn)FFA-NH2)	Active	Active	inactive	inactive	Active	Active	Not Active	Active	Active	Active	Active	Active	Active	–	–	–	–
CC(=O)N[C@@H](CCCCN)C(=O)N[C@@H](CC(C)C)C(=O)N[C@@H](CCC(=O)OCc1ccccc1)C(=O)N[C@@H](Cc1ccccc1)C(=O)N[C@@H](Cc1ccccc1)C(=O)N[C@@H](C)C(N)=O (Ac-KLE(OBn)FFA-NH2)	Active	Active	inactive	inactive	Active	Active	Not Active	Active	Active	Active	Active	Active	Active	Active	Active	Active	Active
